Experimental findings from patent publication US20020142016A1, “Stable skin care product containing a retinoid and a retinoid booster system in a dual compartment package” (priority 2000, published 2002) are described below.

One series deals with T1, LRAT (Bos taurus, UniProt Q9BGL2).
T1 construct: followed by approximately 15 pg of RPE microsomal protein; tissue W. L. Lawson Co., Lincoln, Nebr; host or cells: bovine retinal pigment epithelium microsomes
T1 sequence (Q9BGL2 1-230): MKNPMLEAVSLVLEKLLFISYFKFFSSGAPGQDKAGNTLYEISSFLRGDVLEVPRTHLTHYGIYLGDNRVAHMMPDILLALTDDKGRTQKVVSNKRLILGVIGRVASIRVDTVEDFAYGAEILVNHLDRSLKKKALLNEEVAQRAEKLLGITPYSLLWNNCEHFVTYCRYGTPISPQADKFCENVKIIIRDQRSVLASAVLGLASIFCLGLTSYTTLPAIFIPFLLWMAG
Put plainly: Assay for LRAT activity in RPE microsomes. It is filed as biochemical, bovine. The conditions noted are these: 100 μm compound.

The subject of series [1] is retinoic acid oxidation (cytochrome P450 systems). The series is described as follows: Assay for NADPH dependent retinoic acid oxidation in rat liver microsomes. It is filed as biochemical. The conditions noted are these: Sprague Dawley, pH 7.4, probe retinoic acid; for inhibition at 60 min, 100 µM: 10 μM. Background: Liver microsomes are vesicles of endoplasmic reticulum, rich in cytochrome P450 enzymes.

The nature of series [2]: Retinol stability in the presence of boosters (OD 360 nm). It is filed as physicochemical. The conditions noted are these: booster approximately 0.1%, retinol in approx. 50% aqueous ethanol, 60 hours at room temperature in the dark. How it is done: Retinol (50% in tween 80) was dissolved in approximately 50% aqueous ethanol to provide a solution giving an OD at 360nm of approximately 0.6 when measured in a 200 μl volume in a 96 well plate using a standard 96 well spectrophotometer.
Booster molecules were added at approximately 0.1% concentration and the OD 360 measured as above immediately and after 60 hours at room temperature in the dark. A correction was applied to the OD after 60 hours (divide by 0.85) to account for increased concentration of the retinol due to evaporation of solvent from the plate.

A further series relates to TGase I. The series is described as follows: Transglutaminase (TGase I ELISA) assay in cultured keratinocytes with retinol. The conditions noted are these: for IC50: Keratinocyte, concentration of booster which, with constant retinol 10^-7 M, inhibits TGase by 50%, read-out: Overall TG (IC 50); for % Inhibition Overall TG (-ROH/RE): added effect of booster+retinol induced TGase inhibition over retinol alone. It is filed as cell-based. (In general: ELISA stands for enzyme-linked immunosorbent assay.)

Usually inhibition stands for how much of the control response was suppressed. For the compound `CCCCCCCCCCCCCC(=O)N(C)CC(=O)O` [Myristoyl Sarcosine], testing at 100 µM at LRAT gave an inhibition of 11%. Still for that read-out and setting: in the case of `CCCCC/C=C\C/C=C\CCCCCCCC(=O)NCCCN(C)C` [Linoleamidopropyl Dimethylamine] it was 75%. For the compound `Clc1ccccc1C(c1ccccc1)(c1ccccc1)n1ccnc1` [Clotrimazole], in series [1], the inhibition at 60 min, 10 µM stood at 76%. For `CC(C)=CCCC(C)=CC=O` [Citral], the “FOLD INCREASE IN RATE OF RETINOL LOSS” value in series [2] came out at 3.1. On the same count and under the same terms, in the case of `CCCCCCCCCCCC(=O)N(C)CC(=O)O` [Lauroyl Sarcosine] it was 2.6. As to `COc1cc(NS(C)(=O)=O)ccc1Nc1c2ccccc2nc2ccccc12` [Amsacrine, reference compound], the IC50 with TGase I is 6.26 µM. In series [1], `O=c1c(O)c(-c2ccc(O)c(O)c2)oc2cc(O)cc(O)c12` [Quercetin] gave an inhibition at 60 min, 10 µM of 40% and an inhibition at 60 min, 100 µM of 74%. Also, in the series with TGase I, the IC50 is 62.9 µM. With `CC(=O)c1cc2c(cc1C)C(C)(C)C(C)CC2(C)C` (stereo not shown) [Tonalid], on LRAT, the inhibition at 100 µM turned out to be 33%. For `CC(=O)N1CCN(c2ccc(OCC3COC(Cn4ccnc4)(c4ccc(Cl)cc4Cl)O3)cc2)CC1` (stereo not shown) [Ketoconazole], in series [1], the inhibition at 60 min, 10 µM was found to be 84% and the inhibition at 60 min, 100 µM turned out to be 84%. Further, the IC50 in the series with TGase I was 0.185 µM. For the compound `CC(C)=CCCC(C)=CCCC(C)=CCO` [Farnesol], the inhibition at 100 µM on LRAT is 53%. Further, the IC50 with TGase I is 93.5 µM. With `CC(C)=CCC/C(C)=C/CC/C(C)=C/CC/C(C)=C/CO` [Geranyl Geraniol], the inhibition at 100 µM against LRAT amounted to 77%. Take `C[C@H]1[C@H](C)CC[C@]2(C(=O)O)CC[C@]3(C)C(=CC[C@@H]4[C@@]5(C)CC[C@H](O)C(C)(C)[C@@H]5CC[C@]43C)[C@H]12` [Urosolic Acid]: the IC50 in the series on TGase I is 1.46 µM. Regarding `O=c1ccc2ccccc2o1` [COUMARIN], the “FOLD INCREASE IN RATE OF RETINOL LOSS” value in series [2] is 1.4. In series [1], `Clc1ccc(COC(Cn2ccnc2)c2ccc(Cl)cc2Cl)cc1` (stereo not shown) [Econazole] registered an inhibition at 60 min, 10 µM of 88% and an inhibition at 60 min, 100 µM of 100%. Take `CC1(C)[C@@H](OC(=O)CCC(=O)O)CC[C@]2(C)[C@H]3C(=O)C=C4[C@@H]5C[C@@](C)(C(=O)O)CC[C@]5(C)CC[C@@]4(C)[C@]3(C)CC[C@@H]12` [Carbenoxolone, reference compound]: the IC50 in the series with TGase I turned out to be 0.361 µM.

On to `CC/C=C\C/C=C\C/C=C\CCCCCCCC(=O)O` [Linolenic Acid], for which the IC50 with TGase I came out at 134 µM. On to `COc1cc(C=O)ccc1O` [Vanillin], for which, in the series on TGase I, the IC50 was determined as 9700 µM. In the case of `CC(=O)/C=C/C1C(C)=CCCC1(C)C` (stereo not drawn) [Alpha-Ionone], the “FOLD INCREASE IN RATE OF RETINOL LOSS” value in series [2] is given as 1.3.

Turning to `CN1CCN(C)C1=O` [Dimethyl Imidazolidinone], the “FOLD INCREASE IN RATE OF RETINOL LOSS” value in series [2] is recorded as 1.4. For the same compound, the “% Inhibition Overall TG (-ROH/RE)” value in the series with TGase I came out at 22%. In the case of `CC1(C)[C@@H](O)CC[C@]2(C)[C@H]3C(=O)C=C4[C@@H]5C[C@@](C)(C(=O)O)CC[C@]5(C)CC[C@@]4(C)[C@]3(C)CC[C@@H]12` [Glycyrretinic Acid], the “FOLD INCREASE IN RATE OF RETINOL LOSS” value in series [2] is given as 1.6.

`CCCCCCCC/C=C/CCCCCCCC(=O)O` [Elaidic Acid]: the IC50 with TGase I was 65 µM. Turning to `O=C(O)CCCCCCCCCCCCCCC(=O)O` [Hexadecanedioic Acid], the IC50 with TGase I is 130 µM. Turning to COCAMIDE DEA, the “FOLD INCREASE IN RATE OF RETINOL LOSS” value in series [2] is 1.9. Take `CCCCC/C=C\C/C=C\CCCCCCCC(=O)N(CCO)CCO` [Linoleamide-DEA (or Linoleoyl Diethanolamide)]: the “FOLD INCREASE IN RATE OF RETINOL LOSS” value in series [2] amounted to 3.0. Besides, the “% Inhibition Overall TG (-ROH/RE)” value in the series on TGase I stood at 59%.

For DAMASCONE, the “FOLD INCREASE IN RATE OF RETINOL LOSS” value in series [2] turned out to be 3.7.

`CC(/C=C/C=C(\C)C(=O)O)=C\C=C\C=C(C)\C=C\C=C(/C)C(=O)O` [Crocetin] gave an inhibition at 100 µM against LRAT of 15%. Also, the IC50 with TGase I turned out to be 37.5 µM. As to `c1ccc(-c2ccc(C(c3ccccc3)n3ccnc3)cc2)cc1` (stereo not shown) [Bifonazole], in series [1], the inhibition at 60 min, 10 µM is 89% and the inhibition at 60 min, 100 µM turned out to be 100%. In series [1], `Clc1ccc(COC(Cn2ccnc2)c2ccc(Cl)cc2Cl)c(Cl)c1` (stereo not shown) [Miconazole] yielded an inhibition at 60 min, 10 µM of 74% and an inhibition at 60 min, 100 µM of 86%. For the compound `CC(C)=CCC/C(C)=C/CO` [Geraniol], in series [2], the “FOLD INCREASE IN RATE OF RETINOL LOSS” value was determined as 1.3. Further, in the series with TGase I, the IC50 is 7830 µM. In turn, `CCCCC/C=C/C/C=C/CCCCCCCC(=O)NC(C)c1ccccc1` (stereo not shown) [Melinamide, reference compound] came in with an inhibition at 100 µM on LRAT of 43%. Take `CC(C)(C)C(=O)C(Oc1ccc(Cl)cc1)n1ccnc1` (stereo not shown) [Climbazole]: in series [1], the inhibition at 60 min, 10 µM worked out at 80% and the inhibition at 60 min, 100 µM is 92%. In addition, the IC50 with TGase I was 4.47 µM. For the compound `CCCCCCCCCCCCCC(=O)O` [Myristic Acid], the IC50 in the series on TGase I is 17.2 µM. `CC(C)CCCCCCCCCCCCCCC(=O)O` [Isostearic Acid]: in the series on TGase I, the IC50 came out at 68.8 µM. As to `CCN(CC)CC(=O)Nc1c(C)cccc1C` [Lidocaine, reference compound], 100 µM produced 0% inhibition at LRAT. As for `CCCCC/C=C\C/C=C\CCCCCCCC(=O)O` [Linoleic Acid], in series [2], the “FOLD INCREASE IN RATE OF RETINOL LOSS” value was determined as 3.4. The IC50 in the series on TGase I was 163 µM. For `CC(C)(C(=O)c1cccnc1)c1cccnc1` [Metyrapone (2-Methyl-1,2-di-3-Pyridyl-1-Propane], in series [1], the inhibition at 60 min, 100 µM was found to be 47%. As to `Oc1cccc2cccnc12` [8 OH QUINOLINE], the “FOLD INCREASE IN RATE OF RETINOL LOSS” value in series [2] worked out at 1.5.
